Source: ChEMBL document CHEMBL6115002, “Discovery of novel sitolactone derivative leading to PANoptosis and differentiation of acute myeloid leukemia cells” (Eur J Med Chem, 2025)

Key:
Kasumi 1 [1] = experiment: Induction of apoptosis in human Kasumi 1 cells assessed as increase in cleaved PARP-1 level incubated for 72 hrs by Western blotting analysis; format: functional, cell-based; conditions: dose 0.625-5 µM
Kasumi 1 [2] = experiment: Induction of cell cycle arrest in human Kasumi 1 cells assessed as increase in accumulation of cells at G1 phase at 0.25 uM incubated for 24 hrs by propidium iodide staining based flow cytometric analysis (reference value: 50.41%); format: functional

**Q.** How did the Activity (Kasumi 1 [1]) turn out when `C=C1C[C@@H]2[C@@H](CC[C@]3(C)[C@@H](O[Si](C(C)C)(C(C)C)C(C)C)CC[C@@H]23)OC1=O` was run?
**A.** Dose-dependent-effect

**Q.** What about the Activity (Kasumi 1 [2]) of the same compound?
**A.** 52.67%
